Experimental data from ChEMBL document CHEMBL1201862, “PubChem BioAssay data set” (2004).
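Cells were grown in 96-well plates and exposed to each compound for 48 hours at five concentrations; endpoints were interpolated linearly between bracketing concentrations, or set to the highest concentration if not reached. GI50 marks 50% less growth.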 Activity calls are given as the source filed them. Rule as the data show it: active = GI50 up to about 1.1 µM and inactive = higher.

Columns and labels:
Test in all cases: DTP human tumour cell line panel, 48 h
CAKI-1 = system: CAKI-1
CCRF-CEM = system: CCRF-CEM
EKVX = system: EKVX
HCC 2998 = system: HCC 2998
HL-60 = system: HL-60
Hs-578T = system: Hs-578T
LOX IMVI = system: LOX IMVI
MDA-N = system: MDA-N
MOLT-4 = system: MOLT-4
Malme-3M = system: Malme-3M
NCI-H226 = system: NCI-H226
NCI-H522 = system: NCI-H522
NCI/ADR-RES = system: NCI/ADR-RES
RPMI-8226 = system: RPMI-8226
SN12C = system: SN12C
SNB-75 = system: SNB-75
SR = system: SR
T47D = system: T47D
TK-10 = system: TK-10
UO-31 = system: UO-31

Measured: GI50

Cn1c2ccccc2n2c3ccccc3c(=O)c(C#N)c12
inactive: CAKI-1 3.85 µM | CCRF-CEM 8.38 µM | EKVX 18.7 µM | HCC 2998 6.56 µM | HL-60 3.41 µM | Hs-578T 13.2 µM | LOX IMVI 4.38 µM | MDA-N > 48.5 µM | MOLT-4 2.96 µM | Malme-3M 4.27 µM | NCI-H226 2.68 µM | NCI-H522 4.29 µM | NCI/ADR-RES 4.46 µM | RPMI-8226 3.44 µM | SN12C 17.9 µM | SNB-75 15 µM | SR 2.84 µM | T47D 17.6 µM | TK-10 > 55 µM | UO-31 4.14 µM

CC(C)(C)c1cc(C(=O)/C=C/c2c(Cl)cccc2Cl)cc(C(C)(C)C)c1O
inactive: CAKI-1 22.2 µM | CCRF-CEM 4.04 µM | EKVX 21.9 µM | HCC 2998 14.1 µM | HL-60 3.7 µM | Hs-578T 25.2 µM | LOX IMVI 13.6 µM | MDA-N 16.7 µM | MOLT-4 6.85 µM | Malme-3M 18.6 µM | NCI-H226 17.8 µM | NCI-H522 5.57 µM | NCI/ADR-RES 20.1 µM | RPMI-8226 3.8 µM | SN12C 21 µM | SNB-75 4.93 µM | SR 3.86 µM | T47D 4.33 µM | TK-10 19.4 µM | UO-31 14.9 µM
